We go through three compounds from patent US20240390490A1, “PHARMACEUTICAL COMPOSITIONS FOR THE TREATMENT OF CANCERS” (Rutgers, The State University of New Jersey, priority 2021, published 2024).

The subject of one test is MDA-MB-231 cells. Put plainly: Cell cycle analysis (PI staining). In kind it is cell-based, human. The note with it: 100 μM. Here is the method: Cell cycle analysis of breast cancer cells was carried out using propidium iodide (PI) staining protocol according to the manufacturer's instructions (Nexcelom Bioscience LLC, Lawrence, MA). […] Then, cells were harvested by trypsinization, centrifuged at 2000 rpm for 5 minutes, washed with PBS (pH 7.4), and fixed in ice cold 100% ethanol for 15 minutes. The cells were spun down and resuspended in 150 μl of PI-staining solution provided with the Cellometer PI Cell Cycle Kit. The PI-stained cells were then subjected to analysis in the Cellometer Vision instrument (Nexcelom Bioscience LLC) and the data was captured on Cellometer Vision CBA software (Nexcelom Bioscience LLC) and analyzed by FCS Express 4 software (Molecule Devices, Corp., Sunnyvale, CA). Differences in fluorescence intensity were used to determine the percentage of cells in each phase of the cell cycle and represented as histograms for control and drug-treated samples.

In test [1] the test system is MDA-MB-231-cell-derived xenografts. Put plainly: Survival study of nude rats inoculated with MDA-MB-231 cells. Type of test: in vivo, rat. The settings on record: Kaplan-Meier; control animals about 28 days. Here is the method: For the following study and survival study, MDA-MB 231 cells (ATCC) were grown until about 90% confluence just 1 day before injection. On the day of injection, after checking cell viability with trypan blue, MDA-MB 231 cells were diluted in PBS at a final concentration of 1×10^7 cells/rat in 200-μl of PBS-50% Matrigel (BD Biosciences, San Jose, CA) mixture and injected subcutaneously (SC) into the right flank of the rats. […] Tumor shrinkage/growth was measured in animals daily and animal weights were measured every other day. […] Three dimensions of tumor were measured using electronic calipers, and tumor volumes were calculated by the formula L×W^2/2. The mean±SEM of tumor volume was calculated weekly for each experimental group, and the data are expressed as mean absolute tumor volume. After the animals were sacrificed, the subcutaneous tumors were excised intact from the rats to determine the tumor weight in grams and photographed to visualize differences in tumor morphology and compare size. A portion of the excised tumors was snap-frozen by immersion in liquid nitrogen and stored at −80° C. until further use.
The animals were treated with the same drug treatment regimens and euthanized as described previously. […] At the endpoint (prior to the onset of death), the animals were euthanized, and the survival curves were plotted in a Kaplan-Meier survival curve.

The test system of test [2] is NK cells, monocytes and macrophages in PBMC and spleen. The experiment in a line: Flow cytometry of immune cells in PBMC and spleen of xenografted rats. In kind it is in vivo, rat. The settings on record: for NK cell numbers in PBMC and spleen: CD161a+ NK cells, flow cytometry. Here is the method: Peripheral blood mononuclear cells (PBMC) from control and drug-treated rats were isolated from freshly obtained EDTA whole blood by density gradient purification (Lymphoprep™, Stemcell Technologies™, Vancouver, BC, Canada) using 15 mL SepMate™ tubes (Stemcell Technologies™) as per the manufacture's protocol. The pelleted cells (PBMC) were counted in a hemocytometer and assayed for viability by the trypan blue dye exclusion method. PBMC cell pellets from 3 animals in each group were pooled, washed three times with PBS, and finally resuspended in 2 ml RPMI medium containing 10% heat-inactivated FBS (HI-FBS) and used for NK cell cytotoxicity. Aliquots of PBMC were frozen down at −80° C. by resuspending cells in freezing media containing HI-FBS and 10% DMSO in aliquots of 5-10×10^6 cells/mL using Nalgene Mr. Frosty Cryo 1° C. freezing containers (Thermo Fisher Scientific) before storage in liquid nitrogen. For flow cytometric analysis, frozen PBMC was thawed and resuspended in RPMI-1640 and was evaluated for viability by trypan blue, and all were […], then washed with PBS before starting flow cytometer experiments.
Tumor-infiltrating immune cells were collected from MDA-MB-231 cell xenograft tumors to examine and compare the immune cell population among control and drug-treated animals. Briefly, single-cell suspensions of tumor tissue were achieved by mincing the tissue with a scalpel blade using a crisscross method, ground with 1-ml of ACK lysing buffer to remove red blood cells. The cell suspensions were filtered through a 70-micron sieve and then washed with PBS. Cells from the tumor were collected and dispersed with 100 μl of PBS and stained by the addition of fluorescence-conjugated antibodies. For flow cytometry experiments, single-cell suspension derived from tumors, PBMC, and splenocytes were used to characterize the immune cell population. Fluorophore-conjugated antibodies were used to detect surface markers of specific cell types and markers are as follows: for NK cells (CD161a (10/78)), tissue macrophage (RT1B (OX-6)), dendritic cells (CD103 (OX-62)), peripheral monocytes (CD11b (ED8)), B cells (CD45RA (OX-33)), and DAPI (Sigma) was used to exclude dead cells.
Immune cells from the tumor, PBMC, and splenocyte samples were examined by following the gating strategy as described below. First, side scatter area (SSC-A) versus forward scatter area (FSC-A) were used to exclude cellular debris, then forward scatter height (FSC-H) versus FSC-A were used to select single cells. […] Additional negative controls (isotype control and fluorescence minus one (FMO)) were also used to determine any non-specific binding in the present study. The data collected from each sample were exported and analyzed using FlowJo™ version 10.7.
On the technique in general: In flow cytometry, cells or beads pass a laser one at a time.

In test [3] the test system is plasma cytokines and chemokines. Put plainly: Plasma cytokines multiplex immunoassay. In kind it is in vivo, rat. The source says: After the end of the drug treatment period, plasma samples from control and drug-treated rats were processed and used for cytokine detection. Cytokines were quantified in plasma samples using the ProcartaPlex multiplex immunoassay technology. These immunoassays are bead-based assays for protein quantification based on the principles of a sandwich Elisa with the use of Luminex® xMAP® (multianalyte profiling) technology. The Rat Cytokine & Chemokine 22-plex ProcartaPlex Panel is a preconfigured multiplex immunoassay kit that measures 22 protein targets using Luminex xMAP technology. Plasma samples were diluted with universal assay buffer (1:1) and added into a 96-well flat bottom plate to the magnetic beads. The plate was sealed and covered before incubation of 2 hours at room temperature with 500 rpm shaking. After inserting the plate into the handheld magnetic plate washer, the plate was washed 3 times using a specific wash buffer. 25 μL of detection antibody mixture was to the plate and incubated it for 30 minutes at room temperature at 500 rpm. The plate was washed 3 times. Then 50 μL of SAPE solution were added to the plate before a novel 30-minute incubation at room temperature at 500 rpm. The plate was washed 3 times. Finally, 120 μL of reading buffer were add to the plate and incubated for 5 minutes at room temperature at 500 rpm before reading and analyzing with the Luminex™ instrument (MAGPIX® xPONENT®, R&D System, ThermoFisher). Median fluorescence index (MFI) was calculated and presented.

Take `CC(C)NCC(O)COc1cccc2ccccc12` (stereo not shown) [PRO, propranolol]: in the test on MDA-MB-231 cells, the “number of cells in G0/G1 phase” value is reported as “reduced”, the “number of cells in G2/M phase” value is reported as “increased” and the “number of cells in S phase” value is reported as “no significant changes”. The “mean life span (survival)” value in test [1] is listed as 45 days. The “NK cell numbers in PBMC and spleen” value in test [2] is on record as “increased”. Besides, the “macrophage numbers in spleen” value in test [2] (RT1B+ macrophages) was “reduced”. In test [3], the IFN-γ entry is given as “elevated”; the “chemokines RANTES and MCP-1” value is recorded as “inhibited”; the “inflammatory cytokines and chemokines G-CSF/CSF-3, IL-1 alpha, IL-10, IL-6, IL-5, Gro-α, TNF-α, MCP-3, and IL-17A” value is “inhibited”.
Consider `CC1(C)SSC(C)(C)[C@@H](NC(=O)[C@@H](N)Cc2ccc(O)cc2)C(=O)NCC(=O)N[C@@H](Cc2ccccc2)C(=O)N[C@H]1C(=O)O` [DPDPE, (D-Pen^2, D-Pen^5)-enkephalin], for which, in the test with MDA-MB-231 cells, the “number of cells in G0/G1 phase” value is “reduced”, the “number of cells in G2/M phase” value is on record as “increased” and the “number of cells in S phase” value was “no significant changes”. Moreover, the “mean life span (survival)” value in test [1] turned out to be 40 days. For the same compound, the “NK cell numbers in PBMC and spleen” value in test [2] is recorded as “increased”. For the same compound, the “chemokines RANTES and MCP-1” value in test [3] was “inhibited”.
On to `O=C1CC[C@@]2(O)[C@H]3Cc4ccc(O)c5c4[C@@]2(CCN3CC2CC2)[C@H]1O5` [NTX, 17-(cyclopropylmethyl)-4,5α-epoxy-3,14-dihydroxymorphinan-6-one], for which, in the test with MDA-MB-231 cells, the “number of cells in G0/G1 phase” value is reported as “reduced”, the “number of cells in G2/M phase” value is reported as “increased” and the “number of cells in S phase” value is given as “no significant changes”. In test [1], the “mean life span (survival)” value was found to be 45 days. The “NK cell numbers in PBMC and spleen” value in test [2] was “increased”. In test [3], the IFN-γ result was “elevated”; the “chemokines RANTES and MCP-1” value is “inhibited”.
